# According to patent US8912121B2, “Herbicidal compositions comprising 4-amino-3-chloro-5-fluoro-6-(4-chloro-2-fluoro-3-methoxyphenyl)pyridine-2-carboxylic acid or a derivative thereof and certain PS II inhibitors” (Dow Agrosciences LLC, priority 2012, dated 2014):
# System: SETVI (Setaria viridis, green foxtail)
# Test: Pre-emergence soil-applied mixtures, greenhouse
# Type: in vivo, Setaria viridis (L.) Beauv.
# Description: Seeds or nutlets of the desired test plant species were planted in a soil matrix prepared by mixing a loam soil (32 percent silt, 23 percent clay, and 45 percent sand, with a pH of about 6.5 and an organic matter content of about 1.9 percent) and calcareous grit in an 80 to 20 ratio. The soil matrix was contained in plastic pots with a volume of 1 quart and a surface area of 83.6 square centimeters (cm^2).
# Treatments consisted of the benzyl ester of 4-amino-3-chloro-5-fluoro-6-(4-chloro-2-fluoro-3-methoxy-phenyl)pyridine-2-carboxylic acid (compound A) formulated as an SC (suspension concentrate) and various herbicidal components alone and in combination. Forms of compound A were applied on an acid equivalent basis.
# Other herbicidal components were applied on an acid equivalent or active ingredient basis and included the PSII-inhibiting herbicides, atrazine formulated as Atrazine® 90WDG, metribuzin formulated as Metribuzin 75DF, simazine formulated as Princep Caliber 90, tebuthiuron formulated as Spike 80DF, cyanazine (technical grade material), hexazinone (technical grade material), linuron (technical grade material), terbuthylazine (technical grade material), and diuron formulated as Diuron 4L.
# Treatment requirements were calculated based upon the rates being tested, the concentration of active ingredient or acid equivalent in the formulation, and a 12 mL application volume at a rate of 187 L/ha.
# For treatments comprised of formulated compounds, measured amounts of compounds were placed individually in 25 mL glass vials and diluted in a volume of 1.25% (v/v) Agri-Dex® crop oil concentrate (COC) to obtain 12× stock solutions. […]
# For treatments comprised of formulated and technical compounds, weighed amounts of the technical materials can be placed individually in 25 mL glass vials and dissolved in a volume of 97:3 (v/v) acetone/DMSO to obtain 12× stock solutions, and measured amounts of the formulated compounds can be placed individually in 25 mL glass vials and diluted in a volume of 1.5% (v/v) COC or water to obtain 12× stock solutions. […]
smiles,measurement,setting,value
"COc1c(Cl)ccc(-c2nc(C(=O)OCc3ccccc3)c(Cl)c(N)c2F)c1F [Compound A Benzyl Ester, benzyl ester of 4-amino-3-chloro-5-fluoro-6-(4-chloro-2-fluoro-3-methoxy-phenyl)pyridine-2-carboxylic acid]",Visual Weed Control (%)-29 DAA SETVI Obs,Compound A Benzyl Ester 16 g ae/ha,10%
same,Visual Weed Control (%)-29 DAA SETVI Obs,Compound A Benzyl Ester 32 g ae/ha,10%
